Columns and labels:
Format in all cases: in vivo
[1] = tested on: fall armyworm larvae (Spodoptera frugiperda); experiment: Spodoptera frugiperda spray test; details: 168 h, read-out: activity (mortality)
In short: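 Compound in acetone/DMF, diluted in water with 1000 ppm alkylarylpolyglycol ether emulsifier, sprayed on maize leaf sections. Dried leaves infested with fall armyworm larvae; % mortality after 7 days (100% = all killed, 0% = none).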

[2] = tested on: two spotted spidermite (Tetranychus urticae); experiment: Tetranychus urticae spray test OP-resistant; details: 144 h, after 6 days
Description: Tetranychus urticae—Spray Test OP-Resistant
Solvent: 78.0 parts by weight acetone • 1.5 parts by weight dimethylformamide
Emulsifier: alkylarylpolyglycol ether
To produce a suitable preparation of active compound, 1 part by weight of active compound is mixed with the stated amount of solvents and is diluted with water, containing an emulsifier concentration of 1000 ppm, to the desired concentration. Further test concentrations are prepared by dilution with emulsifier containing water.
French bean (Phaseolus vulgaris) leaf disks infected with all instars of the two spotted spidermite (Tetranychus urticae), are sprayed with a preparation of the active ingredient of the desired concentration.
After 6 days mortality in % is determined. 100% means all spider mites have been killed and 0% means none of the spider mites have been killed.

[3] = tested on: adult engorged female ticks (Rhipicephalus microplus); experiment: Rhipicephalus (Boophilus) microplus injection test; details: 168 h, egg deposition after 7 days, read-out: activity (efficacy: infertile eggs); for pest or weed control at 4 pg: application rate 4 pg/animal; for pest or weed control at 0.02 mg: application rate 20 μg/animal
In short: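 Five adult engorged female ticks injected into the abdomen with 1 μL compound solution in DMSO, then held in a climate chamber. Fertile egg deposition assessed after 7 days, unclear eggs kept until hatching (about 42 days); efficacy 100% = all eggs infertile, 0% = all fertile.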

[4] = tested on: Rhipicephalus microplus larvae (strain Parkhurst, resistant against synthetic pyrethroids); experiment: Rhipicephalus (Boophilus) microplus in-vitro contact test, larval cattle tick; details: after 48 hours, read-out: activity (efficacy: larvae dead or moribund)
In short: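 Acetone solutions coated onto inner walls of glass tubes by rotation (900 ppm giving 5 μg/cm^2); after evaporation, 20-50 larvae added per tube and held at 27° C., 85% relative humidity. Efficacy read after 48 h from negative geotactic behaviour; 100% = all larvae dead or moribund.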

[5] = tested on: adult unfed cat fleas (Ctenocephalides felis); experiment: Ctenocephalides felis oral test; details: 48 h, read-out: activity (mortality)
In short: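 About 20 adult unfed fleas fed through parafilm on cattle blood containing compound (DMSO stock diluted in blood), blood held at 37 °C and fleas at room temperature. Mortality (%) scored after 2 days.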

[6] = tested on: larvae of the southern green stink bug (Nezara viridula); experiment: Nezara viridula spray test; details: 96 h, after 4 days; for mortality at 100 g/ha: application rate 100 g/ha
In short: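 Compound in acetone/dimethylformamide, diluted in water with 1000 ppm alkylarylpolyglycol ether emulsifier, sprayed onto barley plants carrying stink bug larvae. Mortality (%) scored after 4 days, 100% meaning all insects killed.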

[7] = tested on: larvae of the banded cucumber beetle (Diabrotica balteata); experiment: Diabrotica balteata spray test; details: 168 h, after 7 days, read-out: activity (efficacy: seedlings grown); for pest or weed control at 100 g/ha: application rate 100 g/ha (=32 pg/well); for pest or weed control at 500 g/ha: application rate 500 g/ha (=160 pg/well)
In short: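 Wheat seedlings, germinated 1 day on agar (5 seeds/well), sprayed with active compound in acetone/DMF diluted in water containing 1000 ppm emulsifier, then infested with 10-20 D. balteata larvae. Efficacy (%) scored after 7 days: 100% = seedlings grown as untreated uninfested control, 0% = no seedlings grown.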

[8] = tested on: adult brown dog ticks (Rhipicephalus sanguineus); experiment: Rhipicephalus sanguineus in-vitro contact test, adult brown dog ticks; details: after 48 hours, read-out: activity (efficacy: ticks dead or moribund); for pest or weed control at 100 g/ha: application rate 1 pg/cm^2 (=100 g/ha)
In short: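 Acetone solution rolled onto tube walls, 2 h at 30 rpm; 900 ppm → 5 μg/cm^2. Solvent evaporated, 5-10 adults/tube, perforated lid, lying, RT. 48 h: heat plate 45-50° C ≤5 min; immotile/uncoordinated = dead/moribund. 100% = all dead/moribund.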

[9] = tested on: green peach aphid (Myzus persicae); experiment: Myzus persicae oral test; details: 120 h, application rate 4 ppm, after 5 days
In short: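 Acetone stock (1 pbw compound/100 pbw solvent) diluted in water; mixed with sugar-supplemented IPL41 medium; parafilm-sealed; mixed aphid population sucks through film; mortality % read at 5 d.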

[10] = tested on: Aedes aegypti strain MONHEIM; experiment: Aedes aegypti test (AEDSAE surface treatment & contact assay); details: 24 hours after contact, read-out: efficacy (mortality); for mortality at 4 mg/m2: surface concentration 4 mg/m^2, exposure 30 minutes; for mortality at 20 mg/m2: surface concentration 20 mg/m^2, exposure 30 minutes
In short: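 Compound in acetone (2 mg/ml) with 2000 ppm RME pipetted onto glazed tile and dried; adult Aedes aegypti MONHEIM exposed 30 min. Percent mortality scored 24 h after contact.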

[11] = tested on: Culex quinquefasciatus strain P00; experiment: Culex quinquefasciatus test (CULXFA surface treatment & contact assay); details: 24 hours after contact, read-out: efficacy (mortality)
In short: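 Compound in acetone (2 mg/ml) with 2000 ppm rapeseed oil methyl ester, dried onto glazed tile. Adult mosquitoes exposed to the treated surface for 30 min. Percent mortality scored 24 h after contact.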

[12] = tested on: Anopheles funestus strain FUMOZ-R; experiment: Anopheles funestus test (ANPHFU surface treatment & contact assay); details: 24 hours after contact, read-out: efficacy (mortality); for mortality at 4 mg/m2: surface concentration 4 mg/m^2, exposure 30 minutes; for mortality at 20 mg/m2: surface concentration 20 mg/m^2, exposure 30 minutes
Description: Anopheles funestus Test (ANPHFU Surface Treatment & Contact Assay)
(§1) Solvent: Aceton+2000 ppm rapeseed oil methyl ester (RME)
In order to produce a sufficient, active ingredient containing solution it is necessary to solve the test compound in the solvent-mix (acetone at 2 mg/ml/RME 2000 ppm). This solution is pipetted onto a glazed tile and after evaporation of the acetone, adult mosquitoes of the species Anopheles funestus strain FUMOZ-R (Hunt et al., Med. Vet. Entomol. 2005 September; 19(3): 271-275) are placed onto the dried surface. The exposure time is 30 minutes. Mortality in percent (%) is determined 24 hours after contact of the insects to the treated surface. 100% mortality means that all tested insects are dead, whereas 0% means that no insect died.

[13] = tested on: green peach aphid (Myzus persicae); experiment: Myzus persicae spray test; details: 120 h, application rate 500 g/ha, after 5 days
In short: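 Chinese cabbage leaf disks carrying all instars of M. persicae sprayed with compound in acetone/DMF, diluted in water with 1000 ppm alkylarylpolyglycol ether emulsifier. Percent mortality scored after 5 days (100% = all aphids killed).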

[14] = tested on: adult cat fleas (Ctenocephalides felis); experiment: Ctenocephalides felis in-vitro contact test, adult cat flea; details: application rate 5 μg/cm^2 (=500 g/ha), after 48 hours, read-out: activity (efficacy: fleas dead or moribund)
In short: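 Acetone solutions of compound coated onto inner walls of glass tubes (900 ppm giving […]); after drying, 5-10 adult Ctenocephalides felis added and held at room temperature. At 48 h, fleas placed on a 45-50° C heating plate; those unable to climb away scored dead or moribund, expressed as % efficacy.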

[15] = tested on: Blattella germanica strain PAULINIA; experiment: whole plant or invertebrate; details: read-out: efficacy (mortality)
Description: Blattella germanica Test (BLTTGE Surface Treatment & Contact Assay)
as §1
In order to produce a sufficient, active ingredient containing solution it is necessary to solve the test compound in the solvent-mix (acetone at 2 mg/ml/RME 2000 ppm). This solution is pipetted onto a glazed tile and after evaporation of the acetone, adult animals of the species Blattella germanica strain PAULINIA are placed onto the dried surface. The exposure time is 30 minutes.
Mortality in percent (%) is determined 24 hours after contact of the insects to the treated surface. 100% mortality means that all tested insects are dead, whereas 0% means that no insect died.

Work on `CCS(=O)(=O)c1cc(C(=O)N[C@@H](C)c2ncnn2-c2ccc(C#N)cn2)cc(C(F)(F)F)c1` [II-33] yielded a mortality at 100 g/ha [1] of 100%, a mortality at 500 g/ha [1] of 83% and a mortality at 100 g/ha ([2]; application rate 100 g/ha) of 90%. For the same compound, the pest or weed control at 4 pg [3] was 100%, the pest or weed control at 0.02 mg [3] was 100% and the pest or weed control at 100 g/ha ([4]; application rate 1 pg/cm^2 (=100 g/ha)) was 100%. For the same compound, the pest or weed control at 500 g/ha ([4]; application rate 5 pg/cm^2 (=500 g/ha)) was 100%, the mortality at 100 ppm [5] was 100% and the mortality at 100 g/ha [6] was 100%. The mortality at 500 g/ha ([6]; application rate 500 g/ha) was 100%, the pest or weed control at 100 g/ha [7] was 100% and the pest or weed control at 500 g/ha [7] was 100%. The pest or weed control at 100 g/ha [8] was 80%, the mortality at 4 ppm [9] was 100% and the mortality at 4 mg/m2 [10] was 80 to 100%. The mortality at 20 mg/m2 [10] was 80 to 100%.

For `Cc1nc([C@H](C)NC(=O)c2csc(Cl)c2)n(-c2ncccn2)n1` [II-24], the mortality at 4 mg/m2 ([11]; surface concentration 4 mg/m^2, exposure 30 minutes) was 80 to 100%, the mortality at 20 mg/m2 ([11]; surface concentration 20 mg/m^2, exposure 30 minutes) was 80 to 100% and the mortality at 500 g/ha ([2]; application rate 500 g/ha) was 90%. For the same compound, the pest or weed control at 4 pg [3] was 100%, the pest or weed control at 0.02 mg [3] was 100% and the mortality at 4 mg/m2 [12] was 80 to 100%. For the same compound, the mortality at 20 mg/m2 [12] was 80 to 100%, the mortality at 500 g/ha [13] was 90% and the pest or weed control at 5 µg/cm2 [14] was 100%. It also gave a pest or weed control at 500 g/ha [7] of 80%, a pest or weed control at 100 g/ha [8] of 100% and a pest or weed control at 5 µg/cm2, 500 g/ha ([8]; application rate 5 μg/cm^2 (=500 g/ha)) of 100%. For the same compound, the mortality at 4 mg/m2 [10] was 80 to 100% and the mortality at 20 mg/m2 [10] was 80 to 100%.

With `CC(NC(=O)c1cc(Cl)cc(S(C)(=O)=O)c1)c1nc(Br)nn1-c1ncccn1` (centres unmarked) [I-34] the pest or weed control at 4 pg [3] was 100%, the mortality at 4 mg/m2 [12] was 80 to 100% and the mortality at 20 mg/m2 [12] was 80 to 100%. It also gave a mortality at 100 ppm [5] of 100%, a pest or weed control at 5 µg/cm2 [14] of 90% and a mortality at 100 g/ha [6] of 100%. For the same compound, the pest or weed control at 100 g/ha [7] was 100%, the mortality at 4 ppm [9] was 100% and the mortality at 20 mg/m2 [15] was 80 to 100%. It also gave a mortality at 4 mg/m2 [10] of 80 to 100% and a mortality at 20 mg/m2 [10] of 80 to 100%.
